pIC50, pKd: −log10 of the molar value.
Experiments:
[1] = Binding affinity to DNA HRE binding site (unknown origin) by DNase 1 footprint titrations method
Homo sapiens = species on record: Homo sapiens; assay: Binding affinity to DNA HRE binding site (unknown origin) assessed as inhibition of HIF-1alpha/ARNT heterodimer binding
[2] = Binding affinity to rat TGF-beta1 promoter AP1 binding site by gel mobility shift and SPR method
[3] = tested on: Human papillomavirus type 16; assay: Antiviral activity against HPV16 assessed as inhibition of viral replication; assay type: functional, organism-based; details: Human papillomavirus 16
[4] = Binding affinity to 5'-TGTTAT-3' DNA (unknown origin)
[5] = Binding affinity to 5'-WGWWCW-3' DNA (unknown origin)

What does the source list for `CN(CCCNC(=O)c1cc(NC(=O)c2cc(NC(=O)c3nc(NC(=O)c4cc(NC(=O)[C@H](N)CCNC(=O)c5nc(NC(=O)c6cc(NC(=O)c7cc(NC(=O)c8sccc8Cl)cn7C)cn6C)cn5C)cn4C)cn3C)cn2C)cn1C)CCCNC(=S)Nc1ccc(-c2c3ccc(=O)cc-3oc3cc(O)ccc23)c(C(=O)O)c1`?
Ka [1]: 6.3 ×10⁹ /M; INH (Homo sapiens): 0.25 nM

With `CC(=O)Nc1cc(C(=O)Nc2cc(C(=O)NCCC(=O)Nc3cc(C(=O)Nc4cn(C)c(C(=O)Nc5cc(C(=O)NCCCC(=O)Nc6cc(C(=O)Nc7cc(C(=O)Nc8cc(C(=O)NCCC(=O)Nc9cn(C)c(C(=O)Nc%10cc(C(=O)NCCC(=O)NCCCN(C)C)n(C)c%10)n9)n(C)c8)n(C)c7)n(C)c6)n(C)c5)n4)n(C)c3)n(C)c2)n(C)c1` as the compound, how does the pKd [2] read?
Its pKd is 8.84.

With `Cn1cc(NC(=O)c2cc(NC(=O)c3cc(NC=O)cn3C)cn2C)cc1C(=O)NCCC(=N)N` [STALLIMYCIN] as the compound, how does the pIC50 [3] read?
The pIC50 was 4.48.

With `CN(CCCN)CCCNC(=O)CCNC(=O)c1cc(NC(=O)c2cc(NC(=O)c3cc(NC(=O)c4cc(NC(=O)CCCNC(=O)c5cc(NC(=O)c6cc(NC(=O)c7cc(NC(=O)c8nccn8C)cn7C)cn6C)cn5C)cn4C)cn3C)cn2C)cn1C` as the compound, how does the pKd [4] read?
Its pKd is 8.96.

With `CN(CCCNC(=O)c1cccc(C(=O)O)c1)CCCNC(=O)c1cc(NC(=O)c2cc(NC(=O)c3cc(NC(=O)c4nc(NC(=O)C[C@@H](CNC(=O)c5cc(NC(=O)c6cc(NC(=O)c7cc(NC(=O)c8nccn8C)cn7C)cn6C)cn5C)NC(=O)c5ccc(-c6ccccc6)cc5)cn4C)cn3C)cn2C)cn1C` as the compound, how does the pIC50 [5] read?
Its pIC50 is 7.89.

With `CN(CCCNC(=O)c1cccc(C(=O)O)c1)CCCNC(=O)c1cc(NC(=O)c2cc(NC(=O)c3cc(NC(=O)c4nc(NC(=O)C[C@@H](CNC(=O)c5cc(NC(=O)c6cc(NC(=O)c7cc(NC(=O)c8nccn8C)cn7C)cn6C)cn5C)NC(=O)c5ccccn5)cn4C)cn3C)cn2C)cn1C` as the compound, how does the pIC50 [5] read?
The pIC50 was 7.68.

With `CN(CCCNC(=O)c1cccc(C(=O)O)c1)CCCNC(=O)c1cc(NC(=O)c2cc(NC(=O)c3cc(NC(=O)c4nc(NC(=O)C[C@@H](CNC(=O)c5cc(NC(=O)c6cc(NC(=O)c7cc(NC(=O)c8nccn8C)cn7C)cn6C)cn5C)NC(=O)c5ccc([N+](=O)[O-])cc5)cn4C)cn3C)cn2C)cn1C` as the compound, how does the pIC50 [5] read?
The pIC50 was 8.00.

From ChEMBL document CHEMBL3232868, “Programmable DNA-binding small molecules” (Bioorg Med Chem, 2013)
